Source: patent US20250255847A1, “[…]s: Novel Drugs for Triple Negative Breast Cancer” (SIMMARON RSEARCH INC, priority 2024, published 2025)

System: TM00096 human TNBC tumor
Assay: Tumor growth in patient-derived xenograft (PDX) mouse model of TNBC
Assay type: in vivo
Settings: for tumor growth by infrared 2DG image analysis: 2 mg/Kg Bwt i.p., end of 4th week; for final tumor volume (mean±SD): after 4 weeks (2 weeks dosing 2 mg/Kg Bwt i.p. alternate days + 2 weeks follow-up), vehicle 949.15±769.15; for initial tumor volume (mean±SD): day 0, 2 mg/Kg Bwt i.p. every alternate day for two weeks
Description: FIG. 12 illustrates an embodiment of the present invention and illustrates SIM-1 and SIM-2 arrest the growth of human TNBC tumor in patient-derived xenograft mouse model. TM00096 tumor (origin of invasive ductal carcinoma isolated from a person) was seeded in the flank of 6-week-old female SCID mice by Jackson Laboratory and then shipped to our research facility. Once the tumor reached ˜4 mm in size (˜30 mm^3 in volume), n=6 mice/group were treated by vehicle (5% DMSO), SIM-1 and SIM-2 (2 mg/Kg Bwt mixed with 5% DMSO) via i.p. for 2 weeks in every alternate day. The tumor size was monitored accordingly during the treatment and two more weeks after the last dose to evaluate the recurrence. After 4 weeks, Mice received IRDye 800-tagged 2DG (2-deoxy glucose) probe via tail vein and then imaged in infrared scanner. […] Red spots enclosed in a squares are tumor tissue. Other red spots are non-specific organs with high metabolic activity. (B) Tumor size was measured every alternate day for 4 weeks by a digital caliper and then the volume was calculated using the formula 0.5*Length*Width^2. […] (D) Body weight was recorded during the course of the study to monitor the adverse metabolic outcome due to the drug administration. (E) The heart rate was monitored at 0-, 7-, 14-, and 28-days post SIM-1 and SIM-2 treatments by MouseStat Jr console (Kent Scientific) as per the manufacturer's instruction. (F) At the end of the study, the gross motor performance was recorded for n=6 (i) vehicle, (ii) SIM-1-, and (iii) SIM-2-treated mice. […] Gross movement parameters including (G) the total distance traveled, and (H) the average speed were monitored and plotted by scatter histograms (n=6/group; not significant as shown by one-way ANOVA).
Acquisition, housing, and treatment of PDX mice. Grade 3 invasive ductal carcinoma tumor fragments were harvested from a patient, genotyped for ER-, PR-, and Her2low, and were engrafted in the flank region of 6-to-7-week-old female NOD.Cg-Prkdcscid Il2rgtm1Wjl/SzJ mouse. These tumor-bearing mice were commercially purchased from Jackson Laboratories (Cat #TM00096). Since these mice are severely immunocompromised, special housing was required in a barrier room with restricted air flow and sterile foods. All animal studies were performed under an Institutional Animal Care and Use Committee-approved protocol (Study ID #). […] For the treatment, 2 mg/Kg bwt doses of both SIM-1 and SIM-2 were dissolved in 5% DMSO and then administered intraperitoneally every alternate day for two weeks and followed up for additional two weeks. To ensure safety and toxicity, vital health parameters such as body weight, heart rate, and body temperature were recorded every alternate day for one month. Tumor growth was assessed every alternate day for one month by a digital caliper. Tumor volume was estimated by the formula 0.5× (length×width2). The treatment started once the tumor reached 4 mm in size with an approximate volume of ˜30 mm^3. Mice received drugs for two weeks and left untreated for an additional two weeks to monitor the effect of drug withdrawal on the tumor size. On the penultimate day of the study, mice were injected with 100 μL of […] 2DG dye. The next day, mice were euthanized and then imaged in a Li—CoR infrared scanner to measure tumor size. After that, tumor tissues were harvested from the flank, washed in cold PBS, again imaged with a scalebar, and finally preserved in a −80° C. freezer for subsequent analyses such as genetic and immunoassays.
This example provides a representative experiment of the present invention that studies the effects of both SIM-1 and SIM-2 on the regression and growth arrest of tumors in vivo in the PDX mouse model of TNBC. […]

| Structure (SMILES) | tumor growth by infrared 2DG image analysis | final tumor volume (mean±SD) | initial tumor volume (mean±SD) |
| --- | --- | --- | --- |
| O=C(O)CCC(=O)NCc1csc2ccc(Cl)cc12 [SIM-1, 4-[(5-chloro-1-benzothiophen-3-yl)methylamino]-4-oxobutanoic acid] | significantly arrested the growth | 126.69±29.98 mm^3 | 37.65±15.41 mm^3 |
| CCOC(=O)c1c(NC(C)=O)sc2c(Cl)c(/C=N/O)ccc12 [SIM-2, ethyl 2-acetamido-7-chloro-6-(hydroxyiminomethyl)-1-benzothiophene-3-carboxylate] | significantly arrested the growth | 134.09±41.77 mm^3 | 37.43±7.07 mm^3 |
